According to patent publication EP2682119A1, “Aromatic N-heterocycle derivatives for use as medicine” (Université Libre de Bruxelles, priority 2012, dated 2014):
pIC50, pKi: −log10 of the molar value. Where a name gives a salt, the structure may show the parent alone. Read-outs that look alike come from different tables or passages of the source.

Assays:
recombinant MPO = biological target: T1, recombinant MPO (Homo sapiens, UniProt P05164); experiment: Myeloperoxidase inhibition (MPO) assay, taurine chloramine production by the MPO/H2O2/Cl- system; type: biochemical; details: for inhibition properties against myeloperoxidase enzyme: compared with the corresponding compound wherein the fluor atom is at position 5 on the indole ring
T1 construct: made in house
T1 sequence (P05164 49-745): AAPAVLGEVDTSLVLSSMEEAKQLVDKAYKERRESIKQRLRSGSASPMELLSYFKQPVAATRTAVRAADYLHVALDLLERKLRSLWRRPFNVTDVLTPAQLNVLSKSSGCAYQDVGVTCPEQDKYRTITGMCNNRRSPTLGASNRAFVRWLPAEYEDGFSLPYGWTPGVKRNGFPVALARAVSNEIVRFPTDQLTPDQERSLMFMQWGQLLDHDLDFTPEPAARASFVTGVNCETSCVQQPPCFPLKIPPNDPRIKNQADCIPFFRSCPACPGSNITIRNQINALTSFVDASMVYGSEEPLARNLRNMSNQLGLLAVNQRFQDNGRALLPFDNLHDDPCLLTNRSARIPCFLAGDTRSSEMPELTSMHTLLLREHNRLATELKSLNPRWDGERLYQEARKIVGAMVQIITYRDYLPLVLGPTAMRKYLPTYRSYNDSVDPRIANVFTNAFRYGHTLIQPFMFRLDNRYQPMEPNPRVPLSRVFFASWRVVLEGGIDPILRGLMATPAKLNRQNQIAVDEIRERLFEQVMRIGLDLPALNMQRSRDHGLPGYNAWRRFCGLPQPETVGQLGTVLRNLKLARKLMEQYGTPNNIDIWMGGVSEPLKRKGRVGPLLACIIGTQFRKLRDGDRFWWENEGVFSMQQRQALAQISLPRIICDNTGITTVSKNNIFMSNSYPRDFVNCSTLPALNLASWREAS
Procedure: Myeloperoxidase inhibition (MPO) assay procedure
The assay was based on the production of taurine chloramine produced by the MPO/H2O2/Cl- system in the presence of a selected inhibitor at defined concentration. The reaction mixture contained the following reagents in a final volume of 200 µL: pH 7.4 phosphate buffer (10 mM PO4^3-/300 mM NaCl), taurine (15 mM), the compound to be tested (up to 20 µM), and the fixed amount of the recombinant MPO (6.6 µL of MPO batch solution diluted 2.5 times, 40 nM). When necessary, the volume was adjusted with water. This mixture was incubated at 37 °C and the reaction initiated with 10.0 µL of H2O2 (100 µM). After 5 min, the reaction was stopped by the addition of 10 µL of catalase (8 U/µL).
(§1) Recombinant MPO was prepared as previously described. Each batch solution is characterized by its protein concentration (mg/mL), its activity (U/mL), and its specific activity (U/mg). The chlorination activity was determined according to Hewson and Hager. […] The different steps were carried out in the dark, and the protein concentration was measured by the Lowry assay for both MPO and LDL.

[1] = biological target: T2, LDL oxidation carried out by MPO (Homo sapiens, UniProt P05164); experiment: Inhibition of LDL oxidation by MPO, ELISA with Mab AG9; type: biochemical
T2 construct: made in house
T2 sequence (P05164 49-745): T1 sequence (P05164 49-745)
Procedure: Low-density lipoproteins oxidation inhibition
Preparation of the Recombinant Enzyme and of LDL
as §1
Inhibition of LDL Oxidation
LDL oxidation was carried out at 37 °C in a final volume of 500 µL. The reaction mixture contained the following reagents at the final concentrations indicated between brackets: pH 7.2, PBS buffer, MPO (1 µg/mL), LDL (1000 µg/mL), 2 µL 1 N HCl (4 mM), one of the drugs at different concentrations, and H2O2 (100 µM). The reaction was stopped after 5 min by cooling the tubes in ice. The assay was performed as described by Moguilevsky et al. in a NUNC maxisorp plate (VWR, Zaventem, Belgium): 200 ng/well of LDL was coated overnight at 4 °C in a sodium bicarbonate pH 9.8 buffer (100 µL) Afterward, the plate was washed with TBS 80 buffer and then saturated during 1 h at 37 °C with the PBS buffer containing 1% BSA (150 µL/well). […] After incubation for 1 h at 37 °C, the plate was washed four times with the TBS 80 buffer and a 3000 times diluted solution of IgG antimouse alkaline phosphatase (Promega, Leiden, The Netherlands) in the same buffer was added (100 µL/well). The wells were washed again four times and a revelation solution (150 µL/well) containing 5 mg of para-nitrophenyl phosphate in 5 mL of diethanolamine buffer was added for 30 min at room temperature. The reaction was stopped with 60 µL/well of 3 N NaOH solution. […] Results were expressed as IC50.

[2] = biological target: T3, human 5-HT transporter (hSERT) (Homo sapiens, UniProt P31645); experiment: 5-HT reuptake inhibition, [3H]5-HT uptake in transfected HEK-293 MSR cells; type: cell-based; details: serotonin reuptake inhibition
T3 construct: expressed in transfected cells; host or cells: HEK-293 MSR cells (Invitrogen), plasmid pcDNA3.1-hSERT
Procedure: Assesment of 5-HT reuptake inhibition.
Inhibition assessment of 5-HT reuptake was performed as follows. The mammalian expression plasmid pcDNA3.1 containing human 5-HT transporter (hSERT) cDNA has been described previously. HEK-293 MSR cells (Invitrogen) were cultured as monolayers in Dulbecco's modified Eagle's medium (BioWhitaker) supplemented with 10% fetal calf serum (Invitrogen), 100 units/mL penicillin, 100 µg/mL streptomycin (BioWhitaker) and 6 µg/mL Geneticin (Invitrogen) at 95% humidity, 5% p(CO2) and 37°C. Cells were detached from the culture flasks by Versene (Invitrogen) and trypsin/EDTA (BioWhitaker) treatment for subculturing or seeding into white TC-microtiter plates (Nunc). Transfection and measurement of [^3H]5-HT (PerkinElmer Life Sciences) uptake was performed as described by Larsen et al. (2004) except that HEK-293 MSR cells (Invitrogen) were used instead of COS-1 cells.

[3] = inhibition of LDL oxidation, Table 2, read-out: IC50
[4] = inhibition of myeloperoxidase enzyme, Table 1, compounds of the invention, read-out: IC50
[5] = Table 3, 3-amidoindole analogues, oxidation of LDL, read-out: Mox LDL IC50
[6] = Table 3, 3-amidoindole analogues, read-out: MPO IC50

T3 sequence (P31645 whole entry): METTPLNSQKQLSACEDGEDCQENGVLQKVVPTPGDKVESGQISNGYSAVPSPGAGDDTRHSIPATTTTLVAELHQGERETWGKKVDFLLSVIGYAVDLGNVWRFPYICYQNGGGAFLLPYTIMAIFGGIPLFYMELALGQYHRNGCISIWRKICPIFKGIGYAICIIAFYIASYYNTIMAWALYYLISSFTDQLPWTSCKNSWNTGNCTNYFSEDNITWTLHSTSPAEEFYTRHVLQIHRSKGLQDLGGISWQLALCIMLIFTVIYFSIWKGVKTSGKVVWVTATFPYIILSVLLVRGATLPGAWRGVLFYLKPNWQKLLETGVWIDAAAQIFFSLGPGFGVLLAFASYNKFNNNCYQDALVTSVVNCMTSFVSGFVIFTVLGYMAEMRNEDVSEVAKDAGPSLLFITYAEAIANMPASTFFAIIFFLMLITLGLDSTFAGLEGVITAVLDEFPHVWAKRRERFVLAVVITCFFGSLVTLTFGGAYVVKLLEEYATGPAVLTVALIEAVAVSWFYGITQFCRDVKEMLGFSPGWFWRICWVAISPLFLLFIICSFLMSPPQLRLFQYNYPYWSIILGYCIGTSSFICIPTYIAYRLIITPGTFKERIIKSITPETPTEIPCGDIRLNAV

SMILES	inhibition properties against myeloperoxidase enzyme (recombinant MPO)	pIC50 [1, 3]	pIC50 (recombinant MPO; [4])	pKi [2]	pIC50 [1, 5]	pIC50 (recombinant MPO; [6])
NCCc1c[nH]c2c(F)cccc12.O=C(O)C(=O)O [Compound 26, 3-(2-Aminoethyl)-7-fluoro-1H-indole oxalate]	enhanced inhibition properties					
NCCSCCCc1c[nH]c2ccc(F)cc12 [Compound 33, 3-(3-(2-Aminoethylthio)propyl)-5-fluoro-1H-indole oxalate]		7.68				
NCCCCc1c[nH]c2c(F)cccc12 [Compound 30, 3-(4-Aminobutyl)-7-fluoro-1H-indole oxalate]		7.68	8.22			
NCCSCCc1c[nH]c2c(F)cccc12 [Compound 43, 3-(2-(2-Aminoethylthio)ethyl)-7-fluoro-1H-indole oxalate]		8.22	8.52	7.60		
NC(=O)CCCc1c[nH]c2ccc(F)cc12 [Compound 56, 3-(4-(Butylamido))-5-fluoro-1H-indole]		7.74	7.74	6.20	7.74	7.74
NCCSCCc1c[nH]c2ccc(F)cc12 [Compound 32, 3-(2-(2-Aminoethylthio)ethyl)-5-fluoro-1H-indole oxalate]		8.10	8.40			
NC(=O)CCCCc1c[nH]c2ccc(F)cc12 [Compound 58, 3-(5-(pentylamido)) -5-fluoro-1H-indole]					7.36	7.46
N#CSCCCc1c[nH]c2ccc(F)cc12 [Compound 34, 5-Fluoro-3-(3-thiocyanatopropyl) 1H-indole]		7.64	8.30	6.67		
CCN(CCCc1c[nH]c2ccc(F)cc12)S(C)(=O)=O [Compound 36, 5-Fluoro-3-(3-(N-ethylmethanesulfonamido)propyl)-1H-indole]		7.57				
CCN(CCc1c[nH]c2ccc(F)cc12)S(C)(=O)=O [Compound 35, 5-Fluoro-3-(2-(N-ethylmethanesulfonamido)ethyl)-1H-indole]		7.57	7.85	6.76		
NC(=O)CCCCc1c[nH]c2c(F)cccc12 [Compound 57, 3-(5-(pentylamido)) -7-fluoro-1H-indole]					7.37	7.41
CNC(=O)CCCc1c[nH]c2ccc(F)cc12 [Compound 59, 3-(4-(N-methyl, butylamido))-5-fluoro-1H-indole]					7.02	7.40
NC(=O)CCCc1c[nH]c2c(F)cccc12 [Compound 54, 3-(4-(butylamido))-7-fluoro-1H-indole]		7.62			7.62	7.59
ONCCCc1c[nH]c2ccc(F)cc12 [Compound 45, 3-(3-N-Hydroxylaminopropyl)-5-fluoro-1H-indole]		7.68	7.96	7.70		
NCCCc1c[nH]c2c(F)cccc12.O=C(O)C(=O)O [Compound 27, 3-(3-Aminopropyl)-7-fluoro-1H-indole oxalate]	enhanced inhibition properties					
